For assay [1], the target named is T1, Tyrosine-protein phosphatase non-receptor type 22 (Homo sapiens, UniProt Q9Y2R2).
T1 sequence (Q9Y2R2 whole entry): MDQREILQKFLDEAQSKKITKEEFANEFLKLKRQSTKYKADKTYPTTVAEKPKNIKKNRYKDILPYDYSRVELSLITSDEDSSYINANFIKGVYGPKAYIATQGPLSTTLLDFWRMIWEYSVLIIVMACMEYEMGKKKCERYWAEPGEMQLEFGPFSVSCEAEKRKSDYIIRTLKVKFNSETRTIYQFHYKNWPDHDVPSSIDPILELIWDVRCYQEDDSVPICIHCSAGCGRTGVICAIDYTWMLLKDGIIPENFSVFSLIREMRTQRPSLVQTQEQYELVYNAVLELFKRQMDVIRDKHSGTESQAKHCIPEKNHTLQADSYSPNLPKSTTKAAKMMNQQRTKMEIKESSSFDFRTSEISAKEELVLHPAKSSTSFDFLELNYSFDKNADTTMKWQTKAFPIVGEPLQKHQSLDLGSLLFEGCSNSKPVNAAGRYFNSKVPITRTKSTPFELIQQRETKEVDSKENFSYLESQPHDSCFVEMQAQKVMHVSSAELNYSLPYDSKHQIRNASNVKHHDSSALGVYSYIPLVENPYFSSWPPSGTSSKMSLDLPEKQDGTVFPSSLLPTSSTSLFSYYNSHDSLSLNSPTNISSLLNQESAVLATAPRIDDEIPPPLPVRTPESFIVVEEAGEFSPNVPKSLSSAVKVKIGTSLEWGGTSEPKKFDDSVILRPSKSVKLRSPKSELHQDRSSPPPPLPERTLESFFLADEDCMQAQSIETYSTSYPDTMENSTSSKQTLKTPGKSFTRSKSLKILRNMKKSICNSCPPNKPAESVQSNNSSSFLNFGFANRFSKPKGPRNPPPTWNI
Kind of assay: LYP1 Fluorescent Assay using OMFP substrate for In Vitro dose response studies. [Related pubchem assays (depositor defined):AID1779, AID1784, AID435024].

Assay [2] concerns the target Dual specificity protein phosphatase 3 (Homo sapiens, UniProt P51452). Kind of assay: VHR1 phosphatase inhibitors, primary screen, biochemical, absorbance, uHTS (AID 1654).
Assay [3] has as its target T2, Tyrosine-protein phosphatase non-receptor type 7 (Homo sapiens, UniProt P35236).
T2 sequence (P35236 whole entry): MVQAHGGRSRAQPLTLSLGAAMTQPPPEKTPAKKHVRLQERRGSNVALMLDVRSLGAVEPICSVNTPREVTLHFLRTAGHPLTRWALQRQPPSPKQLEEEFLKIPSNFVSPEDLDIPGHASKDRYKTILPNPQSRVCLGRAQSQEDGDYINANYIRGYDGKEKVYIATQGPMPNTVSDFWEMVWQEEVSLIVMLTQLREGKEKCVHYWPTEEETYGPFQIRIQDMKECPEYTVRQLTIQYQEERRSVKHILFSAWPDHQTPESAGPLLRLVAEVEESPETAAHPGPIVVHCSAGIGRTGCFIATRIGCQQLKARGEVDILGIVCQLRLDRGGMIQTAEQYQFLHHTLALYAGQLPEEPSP
Kind of assay: redox-dependent HePTP inhibition, mechanism study, biochemical, fluorescence (AID 2068). The class given is functional.

For assay [4], the target named is T3, Dual specificity protein phosphatase 6 (Rattus norvegicus, UniProt Q64346).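 Note: confirmatory in vitro dose-response testing of MKP-3 inhibition; recombinant His-tagged MKP-3 made in E. coli BL21 with OMFP substrate.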
T3 sequence (Q64346 whole entry): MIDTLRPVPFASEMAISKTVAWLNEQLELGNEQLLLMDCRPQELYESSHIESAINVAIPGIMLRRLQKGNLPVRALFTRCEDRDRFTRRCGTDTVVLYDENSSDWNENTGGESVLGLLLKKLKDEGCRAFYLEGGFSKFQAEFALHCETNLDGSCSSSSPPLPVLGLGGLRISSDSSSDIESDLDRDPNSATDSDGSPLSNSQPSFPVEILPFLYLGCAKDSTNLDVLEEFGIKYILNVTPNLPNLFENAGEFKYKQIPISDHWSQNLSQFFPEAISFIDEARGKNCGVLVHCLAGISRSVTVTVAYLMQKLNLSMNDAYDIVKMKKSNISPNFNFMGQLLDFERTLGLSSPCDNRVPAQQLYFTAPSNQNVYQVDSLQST
The class given is functional.

The target of assay [5] is T4, Carboxy-terminal domain RNA polymerase II polypeptide A small phosphatase 1 (Homo sapiens, UniProt Q9GZU7).
T4 sequence (Q9GZU7 whole entry): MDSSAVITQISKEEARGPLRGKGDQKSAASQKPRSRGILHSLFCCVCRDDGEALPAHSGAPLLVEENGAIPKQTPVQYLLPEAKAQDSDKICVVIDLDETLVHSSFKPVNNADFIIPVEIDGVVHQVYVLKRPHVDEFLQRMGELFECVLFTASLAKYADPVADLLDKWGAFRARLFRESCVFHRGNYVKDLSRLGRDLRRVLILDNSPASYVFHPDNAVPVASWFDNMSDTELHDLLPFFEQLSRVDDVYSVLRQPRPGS
In words: inhibitors of CTDSP1, concentration-response testing, biochemical assay, absorbance-based, actives from ultra-high-throughput screening (AID 540297). The assay is classed as functional.

Assay [6] concerns the target T5, Tyrosine-protein phosphatase non-receptor type 11 (Homo sapiens, UniProt Q06124).
T5 sequence (Q06124 whole entry): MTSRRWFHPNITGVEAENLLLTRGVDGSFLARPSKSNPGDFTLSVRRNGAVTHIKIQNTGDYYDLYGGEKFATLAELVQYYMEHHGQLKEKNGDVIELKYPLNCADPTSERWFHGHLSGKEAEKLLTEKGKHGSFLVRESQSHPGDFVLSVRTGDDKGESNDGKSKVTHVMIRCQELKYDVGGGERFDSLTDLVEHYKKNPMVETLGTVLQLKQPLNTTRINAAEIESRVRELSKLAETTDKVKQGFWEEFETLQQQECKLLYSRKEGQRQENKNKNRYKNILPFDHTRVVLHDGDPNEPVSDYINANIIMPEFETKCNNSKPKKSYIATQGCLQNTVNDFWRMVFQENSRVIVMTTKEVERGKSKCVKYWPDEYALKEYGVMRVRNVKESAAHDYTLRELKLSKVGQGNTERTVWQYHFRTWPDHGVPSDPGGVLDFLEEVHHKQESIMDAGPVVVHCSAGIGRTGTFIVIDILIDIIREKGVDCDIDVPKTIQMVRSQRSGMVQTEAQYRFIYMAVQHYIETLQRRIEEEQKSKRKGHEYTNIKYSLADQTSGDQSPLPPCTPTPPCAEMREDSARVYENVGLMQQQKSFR
In words: SHP2 phosphatase inhibition, dose response, selectivity assay for STEP inhibitor project, biochemical (AID 602367). The class given is functional. To be noted: read-out: IC50_Mean.

The target of assay [7] is 26S proteasome non-ATPase regulatory subunit 14 (Homo sapiens, UniProt O00487). Kind of assay: inhibition of proteasome subunit RPN11 – biochemical, fluorescence polarization, uHTS hits, confirmation (AID 602368). The class given is functional. In general terms: Polarisation of emitted light reports the rotation of a fluorescent probe.
Sequence of 26S proteasome non-ATPase regulatory subunit 14 (O00487 whole entry): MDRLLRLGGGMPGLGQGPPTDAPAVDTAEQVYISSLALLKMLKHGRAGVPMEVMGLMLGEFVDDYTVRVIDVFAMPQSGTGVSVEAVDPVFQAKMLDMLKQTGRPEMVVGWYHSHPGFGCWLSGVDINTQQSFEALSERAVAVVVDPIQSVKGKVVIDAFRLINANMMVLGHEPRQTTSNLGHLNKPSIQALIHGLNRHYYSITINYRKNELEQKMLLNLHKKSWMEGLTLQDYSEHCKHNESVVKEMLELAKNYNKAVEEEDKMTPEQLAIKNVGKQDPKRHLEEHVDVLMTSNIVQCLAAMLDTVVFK
Assay [8] has as its target Small ubiquitin-related modifier 1 (Homo sapiens, UniProt P63165). In words: inhibitors of SUMO1 partner interactions, dose response, biochemical, FRET (AID 624383). The class given is functional. The following applies: read-out: IC50_Mean.

Calls of active or inactive are those of the source.

Sequence of Dual specificity protein phosphatase 3 (P51452 whole entry): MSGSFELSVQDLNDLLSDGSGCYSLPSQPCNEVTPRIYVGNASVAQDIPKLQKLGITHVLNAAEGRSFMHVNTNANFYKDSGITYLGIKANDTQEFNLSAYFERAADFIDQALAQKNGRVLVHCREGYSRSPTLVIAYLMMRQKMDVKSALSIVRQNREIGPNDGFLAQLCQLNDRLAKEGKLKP
Sequence of Small ubiquitin-related modifier 1 (P63165 whole entry): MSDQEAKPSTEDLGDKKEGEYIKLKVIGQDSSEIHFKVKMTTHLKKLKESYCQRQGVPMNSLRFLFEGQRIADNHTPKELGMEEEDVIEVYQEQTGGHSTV

In the case of `CCOC(=O)c1sc2nc3c(SCC(=O)O)cc(C(=O)c4ccccc4O)cn3c(=O)c2c1C`, the IC50 in assay [1] is > 99 µM (inactive); in assay [2], 4.64 µM (active); in assay [3], 0.105 µM (active); in assay [4] it was 57.3 µM (active); in assay [5], 14.8 µM (active); in assay [6], 1.08 µM (active). Moreover, the values for the IC50 in assay [7] and in assay [8] were 6.79 µM (active) and 6.2 µM (active), respectively.

These data come from ChEMBL document CHEMBL1201862, “PubChem BioAssay data set” (2004).
